Format in all cases: physicochemical
One data set is described as follows: Solubility in water.
Data set [1] can be described thus: Solubility in strong acids (glacial acetic acid, concentrated hydrochloric acid). From the text:
For example, 1 g of free itraconazole can be dissolved in about 3 g of glacial acetic acid or about 3 to 4 g of concentrated hydrochloric acid (i.e. 36-38% HCl in water).

Data set [2] is described as follows: Dilution with water of a solution in strong acid. Conditions: solution in strong acid diluted with water to weaken the acid. On the procedure:
However, strongly acidic solutions are unsuitable for oral administration, and if a solution of itraconazole or saperconazole in strong acid is diluted with water to weaken the acid, the itraconazole or saperconazole precipitates.

As for `CCC(C)n1ncn(-c2ccc(N3CCN(c4ccc(OCC5COC(Cn6cncn6)(c6ccc(Cl)cc6Cl)O5)cc4)CC3)cc2)c1=O` (centres unmarked) [itraconazole, Itraconazole], the solubility in water entry in “Solubility in water” is recorded as “practically insoluble in water”. Moreover, the “solubility in strong acids” value in data set [1] is on record as “soluble in strong acids”.

Turning to `CCC(C)n1ncn(-c2ccc(N3CCN(c4ccc(OC[C@H]5CO[C@](Cn6cncn6)(c6ccc(F)cc6F)O5)cc4)CC3)cc2)c1=O` (some centres unmarked) [saperconazole], the “behaviour when solution in strong acid is diluted with water” value in data set [2] was “precipitates”. For the same compound, the solubility in water entry in “Solubility in water” is “practically insoluble in water”. The “solubility in strong acids” value in data set [1] is listed as “soluble in strong acids”.

Source of the values: US6340698B1, “Antifungal solutions” (priority 1999, dated 2002).
